Reference: patent US20130310411A1, “NOVEL ACRIDINE DERIVATIVES” (PHARMINOX LIMITED, priority 2010, published 2013)

Tests used:
[1] = tested on: HT-29: human adenocarcinoma cell line; experiment: Growth inhibition assay (MTT); format: cell-based; conditions: HT-29 cells, 96 hr incubation
Method: Growth inhibition was measured in the HT-29: human adenocarcinoma cell line using the 3-(4,5-Dimethylthiazol-2-yl)-2,5-diphenyltetrazolium bromide (MTT) assay:
Briefly, between 1500 and 2200 cells were seeded into the wells of 96-well microtiter plates and allowed to attach overnight. Test compounds were solubilised at 10 mM in dimethyl sulfoxide (DMSO), diluted in tissue culture media and added to cells at final concentrations of 30, 10, 3, 1, 0.3, 0.1, 0.03 and 0.01 μM in triplicate. Following an incubation period of 96 hr MTT was added to a final concentration of 400 μg/ml and the plates incubated for a further 4 hr. The media/MTT was then aspirated and 150 μl DMSO added. Plates were shaken briefly and the absorbance at 550 nm read using a Labtech LT-4000 plate reader. An extra plate was seeded and the MTT assay was carried out on this plate at the time of drug addition to ascertain an initial absorbance value.
Dose response curves were plotted and the GI50 values (concentration required to inhibit cell growth by 50%) determined for each agent where the absorbance value for control cells minus the initial absorbance was taken as 100% growth.

[2] = tested on: hTel, 5′ biotin-d[AG3(T2AG3)3]3′ (quadraplex) versus duplex, 5′biotind[CGA3T3C2TCTGA3T3CG]3′; experiment: Surface Plasmon Resonance Assay (SPR); format: binding; conditions: HEPES buffer pH 7.3, 25° C.
Method: Biosensor experiments were conducted in filtered, degassed HEPES buffer (10 mM HEPES, 100 mM KCl, 3 mM EDTA, 0.000 05 v/v of 10% P20 BIACORE surfactant, pH 7.3) at 25° C. The 5′-biotin labeled DNA sequences (Integrated DNA Technologies) were HPLC purified and comprise the following sequences: hTel, ^5′ biotin-d[AG3(T2AG3)3]^3′; duplex, ^5′biotind[CGA3T3C2TCTGA3T3CG]^3′. The experiments were conducted upon a BIAcore 2000 optical biosensor instrument (BIAcore Inc.). Flow cell 1 was left blank as a reference, while flow cells 2-4 were immobilized with DNA on a streptavidin-derivatized gold chip (SA chip from BIAcore) by manual injection of DNA stock solutions (flow rate of 1 μL/min) until the desired value of DNA response was obtained (350-400 RU). Typically, a series of different ligand concentrations (1 nM to 10 μM from 20 mM DMSO stock) were injected onto the chip (flow rate of 50 μL/min, 5-10 min) until a constant steady-state response was obtained followed by a dissociation period (buffer, 10 min). After every cycle, the chip surface was regenerated (20 s injection of 10 mM glycine solution, pH 2.0) followed by running buffer flow. The data were processed using BIAevaluation (BIAcore Inc.) and Kaleidagraph (Synergy Software) software for nonlinear least-squares optimization of the binding parameters.

GI50 [1] [µM] | Structure (SMILES) | Quadraplex:duplex ratio [2]
10.4 | c1ccc2c(c1)Oc1c3ccccc3nc3cccc-2c13 [Example 1, Chromeno[4,3,2-kl]acridine] | –
0.93 | C[n+]1c2ccccc2c2c3c(cccc31)-c1ccccc1O2.[Cl-] [Example 2, 8-Methylchromeno[4,3,2-kl]acridin-8-ium chloride] | 4.75
3.04 | C[n+]1c2ccccc2c2c3c(cccc31)-c1ccccc1S2 [Example 3, 8-methylthiochromeno[4,3,2-kl]acridin-8-ium chloride] | –
> 30 | [O-][n+]1c2ccccc2c2c3c(cccc31)-c1ccccc1O2 [Example 4, chromeno[4,3,2-kl]acridine 8-oxide] | 7.5
9.88 | CCOC(=O)C[n+]1c2ccccc2c2c3c(cccc31)-c1ccccc1O2 [Example 5, 8-(2-ethoxy-2-oxoethyl)chromeno[4,3,2-kl]acridin-8-ium iodide] | –
9.39 | CC(=O)Nc1ccc2c(c1)-c1cccc3nc4ccccc4c(c13)O2 [Example 6, N-(chromeno[4,3,2-kl]acridin-3-yl)acetamide] | –
0.95 | CC(=O)Nc1ccc2c(c1)-c1cccc3c1c(c1ccccc1[n+]3C)O2 [Example 7, acetamido-8-methylchromeno[4,3,2-kl]acridin-8-ium chloride] | –
1.04 | COc1ccc2c(c1)-c1cccc3c1c(c1ccccc1[n+]3C)S2 [Example 8, 3-methoxy-8-methylthiochromeno[4,3,2-kl]acridin-8-ium chloride] | –
0.95 | COc1cccc2c1-c1cccc3c1c(c1ccccc1[n+]3C)S2 [Example 9, 4-methoxy-8-methylthiochromeno[4,3,2-kl]acridin-8-ium iodide] | –
0.27 | COc1ccc2c(c1)-c1cccc3c1c(c1ccc(OC)cc1[n+]3C)S2 [Example 10, 3,10-dimethoxy-8-methylthiochromeno[4,3,2-kl]acridin-8-ium chloride] | 7.0
0.76 | COC(=O)c1ccc2c(c1)Sc1c3ccc(OC)cc3[n+](C)c3cccc-2c13 [Example 11, 10-methoxy-2-(methoxycarbonyl)-8-methylthiochromeno[4,3,2-kl]acridin-8-ium chloride] | 17.4
4.49 | COC(=O)c1cccc2c1-c1cccc3c1c(c1ccc(OC)cc1[n+]3C)S2 [Example 12, 10-methoxy-4-(methoxycarbonyl)-8-methylthiochromeno[4,3,2-kl]acridin-8-ium chloride] | >53
3.67 | C[n+]1c2ccccc2c2c3c(cccc31)-c1cc(O)ccc1S2 [Example 14, 3-hydroxy-8-methylthiochromeno[4,3,2-kl]acridin-8-ium chloride] | >80
2.99 | COC(=O)c1ccc2c(c1)Sc1c3ccccc3[n+](C)c3cccc-2c13 [Example 15, 2-(methoxycarbonyl)-8-methylthiochromeno[4,3,2-kl]acridin-8-ium chloride] | 18.1
12.8 | COC(=O)c1cccc2c1-c1cccc3c1c(c1ccccc1[n+]3C)S2 [Example 16, 4-(methoxycarbonyl)-8-methylthiochromeno[4,3,2-kl]acridin-8-ium iodide] | –
1.88 | COCOc1ccc2c(c1)-c1cccc3nc4ccccc4c(c13)S2 [Example 17, 3-(methoxymethoxy)thiochromeno[4,3,2-kl]acridine] | –
9.66 | CC(=O)Nc1cccc2c1-c1cccc3c1c(c1ccccc1[n+]3C)S2 [Example 18, 4-acetamido-8-methylthiochromeno[4,3,2-kl]acridin-8-ium iodide] | –

Structure (SMILES) | GI50 [1] [µM] | Quadraplex:duplex ratio [2]
CC(=O)Oc1ccc2c(c1)-c1cccc3c1c(c1ccccc1[n+]3C)S2 [Example 13, 3-acetoxy-8-methylthiochromeno[4,3,2-kl]acridin-8-ium chloride] | 6.17 | –
COc1ccc2c3c4c(c(OC)ccc4[n+](C)c2c1)-c1ccccc1S3 [Example 19, 5,10-dimethoxy-8-methylthiochromeno[4,3,2-kl]acridin-8-ium iodide] | 1.03 | –
COC(=O)c1ccc2c(c1)-c1cccc3c1c(c1ccccc1[n+]3C)S2 [Example 20, 3-(methoxycarbonyl)-8-methylthiochromeno[4,3,2-kl]acridin-8-ium iodide and chloride] | 6.46 | –
